Reference: ChEMBL document CHEMBL4393686, “InCl3 mediated heteroarylation of indoles and their derivatization via CH activation strategy: Discovery of 2-(1H-indol-3-yl)-quinoxaline derivatives as a new class of PDE4B selective inhibitors for arthritis and/or multiple sclerosis” (Eur J Med Chem, 2019)
Values belong to the molecule of their own block, whether it stands above or below them.

Columns and labels:
[1] = Selectivity for recombinant His-tagged PDE4B (unknown origin) expressed in Sf9 cells over PDE4D2 (unknown origin); details: Homo sapiens
[2] = target: T1, 3',5'-cyclic-AMP phosphodiesterase 4B (Homo sapiens, UniProt Q07343); test: Inhibition of recombinant His-tagged PDE4B (unknown origin) expressed in Sf9 cells using cAMP as substrate preincubated for 15 mins followed by substrate addition and incubated for 1 hr by PDELight HTS cAMP phosphodiesterase Kit based luminometry
[3] = target: High affinity cAMP-specific and IBMX-insensitive 3',5'-cyclic phosphodiesterase 8A (Homo sapiens) (UniProt O60658); test: Inhibition of recombinant N-terminal GST-tagged full length human PDE8A1 expressed in Sf9 cells using FAM-cAMP as substrate at 0.1xIC50 incubated for 60 mins by fluorescence plate reader analysis
[4] = target: High affinity cAMP-specific and IBMX-insensitive 3',5'-cyclic phosphodiesterase 8A (Homo sapiens) (UniProt O60658); test: Inhibition of recombinant N-terminal GST-tagged full length human PDE8A1 expressed in Sf9 cells using FAM-cAMP as substrate at 1xIC50 incubated for 60 mins by fluorescence plate reader analysis
[5] = target: 3',5'-cyclic-AMP phosphodiesterase 7B (Homo sapiens) (UniProt Q9NP56); test: Inhibition of recombinant N-terminal GST tagged and C-terminal His-tagged human PDE7B (109-ens aa) expressed in Sf9 cells using FAM-cAMP as substrate at 0.1xIC50 incubated for 60 mins by fluorescence plate reader analysis
[6] = target: 3',5'-cyclic-AMP phosphodiesterase 7B (Homo sapiens) (UniProt Q9NP56); test: Inhibition of recombinant N-terminal GST tagged and C-terminal His-tagged human PDE7B (109-ens aa) expressed in Sf9 cells using FAM-cAMP as substrate at 1xIC50 incubated for 60 mins by fluorescence plate reader analysis
[7] = target: High affinity cAMP-specific and IBMX-insensitive 3',5'-cyclic phosphodiesterase 8A (Homo sapiens) (UniProt O60658); test: Inhibition of recombinant N-terminal GST-tagged full length human PDE8A1 expressed in Sf9 cells using FAM-cAMP as substrate at 10xIC50 incubated for 60 mins by fluorescence plate reader analysis
[8] = target: cGMP-inhibited 3',5'-cyclic phosphodiesterase 3B (Homo sapiens) (UniProt Q13370); test: Inhibition of recombinant N-terminal GST-tagged human PDE3B (592-end aa) expressed in Sf9 cells using FAM-cAMP as substrate at 0.1xIC50 incubated for 60 mins by fluorescence plate reader analysis
[9] = target: cGMP-inhibited 3',5'-cyclic phosphodiesterase 3A (Homo sapiens) (UniProt Q14432); test: Inhibition of recombinant PDE3A (unknown origin) using FAM-cAMP as substrate at 10xIC50 incubated for 60 mins by fluorescence plate reader analysis
[10] = target: cGMP-inhibited 3',5'-cyclic phosphodiesterase 3A (Homo sapiens) (UniProt Q14432); test: Inhibition of recombinant PDE3A (unknown origin) using FAM-cAMP as substrate at 1xIC50 incubated for 60 mins by fluorescence plate reader analysis
[11] = target: cGMP-inhibited 3',5'-cyclic phosphodiesterase 3B (Homo sapiens) (UniProt Q13370); test: Inhibition of recombinant N-terminal GST-tagged human PDE3B (592-end aa) expressed in Sf9 cells using FAM-cAMP as substrate at 10xIC50 incubated for 60 mins by fluorescence plate reader analysis
[12] = target: cGMP-inhibited 3',5'-cyclic phosphodiesterase 3B (Homo sapiens) (UniProt Q13370); test: Inhibition of recombinant N-terminal GST-tagged human PDE3B (592-end aa) expressed in Sf9 cells using FAM-cAMP as substrate at 1xIC50 incubated for 60 mins by fluorescence plate reader analysis
[13] = target: cGMP-inhibited 3',5'-cyclic phosphodiesterase 3A (Homo sapiens) (UniProt Q14432); test: Inhibition of recombinant PDE3A (unknown origin) using FAM-cAMP as substrate at 0.1xIC50 incubated for 60 mins by fluorescence plate reader analysis
[14] = target: T1, 3',5'-cyclic-AMP phosphodiesterase 4B; test: Inhibition of human recombinant His-tagged PDE4B expressed in Sf9 cells using cAMP as substrate at 10 uM preincubated with enzyme for 15 mins followed by substrate addition and incubated for 1 hr by PDELight HTS cAMP phosphodiesterase Kit based luminometry relative to control
[15] = target: T1, 3',5'-cyclic-AMP phosphodiesterase 4B; test: Inhibition of recombinant His-tagged human PDE4B expressed in Sf9 cells using cAMP as substrate preincubated with enzyme for 15 mins followed by substrate addition and incubated for 1 hr by PDELight HTS cAMP phosphodiesterase Kit based luminometry
[16] = target: 3',5'-cyclic-AMP phosphodiesterase 4D (Homo sapiens, UniProt Q08499); test: Inhibition of PDE4D2 (unknown origin) using cAMP as substrate preincubated with enzyme for 15 mins followed by substrate addition and incubated for 1 hr by PDELight HTS cAMP phosphodiesterase Kit based luminometry
Homo sapiens [17] = species: Homo sapiens; test: Selectivity index, ratio of IC50 for PDE4D2 (unknown origin) to IC50 for recombinant His-tagged human PDE4B expressed in sf9 cells using cAMP as substrate by PDELight HTS cAMP phosphodiesterase Kit based luminometry
Homo sapiens [18] = species: Homo sapiens; test: Selectivity for recombinant His-tagged human PDE4B over PDE4C (unknown origin)
PDE4C = PDE4C (Homo sapiens, UniProt Q08493); test: Inhibition of PDE4C (unknown origin) at 100 uM using cAMP as substrate preincubated with enzyme for 15 mins followed by substrate addition and incubated for 1 hr by PDELight HTS cAMP phosphodiesterase Kit based luminometry relative to control; details: probe cAMP
[19] = Inhibition of recombinant N-terminal GST-tagged full length human PDE4A1A expressed in Sf9 cells using cAMP as substrate at 0.1xIC50 incubated for 60 mins by fluorescence plate reader analysis
[20] = target: 3',5'-cyclic-AMP phosphodiesterase 4A (Homo sapiens) (UniProt P27815); test: Inhibition of recombinant N-terminal GST tagged human PDE4A4B (2-end aa) expressed in Sf9 cells using FAM-cAMP as substrate at 1xIC50 incubated for 60 mins by fluorescence plate reader analysis
[21] = target: 3',5'-cyclic-AMP phosphodiesterase 4A (Homo sapiens) (UniProt P27815); test: Inhibition of recombinant N-terminal GST tagged human PDE4A4B (2-end aa) expressed in Sf9 cells using FAM-cAMP as substrate at 0.1xIC50 incubated for 60 mins by fluorescence plate reader analysis
[22] = Inhibition of recombinant N-terminal GST-tagged full length human PDE4A1A expressed in Sf9 cells using cAMP as substrate at 10xIC50 incubated for 60 mins by fluorescence plate reader analysis
[23] = target: 3',5'-cyclic-AMP phosphodiesterase 4A (Homo sapiens) (UniProt P27815); test: Inhibition of recombinant N-terminal GST tagged human PDE4A4B (2-end aa) expressed in Sf9 cells using FAM-cAMP as substrate at 10xIC50 incubated for 60 mins by fluorescence plate reader analysis
[24] = Inhibition of recombinant N-terminal GST-tagged full length human PDE4A1A expressed in Sf9 cells using cAMP as substrate at 1xIC50 incubated for 60 mins by fluorescence plate reader analysis

High affinity cAMP-specific and IBMX-insensitive 3',5'-cyclic phosphodiesterase 8A (Homo sapiens), sequence (O60658 whole entry): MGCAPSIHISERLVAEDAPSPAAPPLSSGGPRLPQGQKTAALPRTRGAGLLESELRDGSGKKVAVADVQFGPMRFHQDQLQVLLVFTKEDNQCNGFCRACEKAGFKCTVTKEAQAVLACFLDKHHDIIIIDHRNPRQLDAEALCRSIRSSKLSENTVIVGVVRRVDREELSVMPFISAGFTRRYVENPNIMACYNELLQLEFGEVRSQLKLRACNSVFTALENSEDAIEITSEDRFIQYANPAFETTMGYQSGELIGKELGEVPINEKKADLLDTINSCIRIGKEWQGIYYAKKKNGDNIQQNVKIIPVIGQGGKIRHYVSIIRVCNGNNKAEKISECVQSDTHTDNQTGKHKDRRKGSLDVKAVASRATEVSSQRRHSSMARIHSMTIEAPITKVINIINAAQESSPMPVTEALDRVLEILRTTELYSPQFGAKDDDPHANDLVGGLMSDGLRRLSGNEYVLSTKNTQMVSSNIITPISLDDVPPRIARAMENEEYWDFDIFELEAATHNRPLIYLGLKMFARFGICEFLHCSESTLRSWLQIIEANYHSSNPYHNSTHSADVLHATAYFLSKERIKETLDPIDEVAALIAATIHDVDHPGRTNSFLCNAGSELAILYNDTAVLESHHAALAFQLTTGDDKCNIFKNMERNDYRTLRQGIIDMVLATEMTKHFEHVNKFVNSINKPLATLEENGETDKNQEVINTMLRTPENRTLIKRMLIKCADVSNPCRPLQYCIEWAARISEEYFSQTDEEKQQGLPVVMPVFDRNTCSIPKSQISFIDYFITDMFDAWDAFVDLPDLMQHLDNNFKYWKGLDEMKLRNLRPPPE
3',5'-cyclic-AMP phosphodiesterase 4D, sequence (Q08499 whole entry): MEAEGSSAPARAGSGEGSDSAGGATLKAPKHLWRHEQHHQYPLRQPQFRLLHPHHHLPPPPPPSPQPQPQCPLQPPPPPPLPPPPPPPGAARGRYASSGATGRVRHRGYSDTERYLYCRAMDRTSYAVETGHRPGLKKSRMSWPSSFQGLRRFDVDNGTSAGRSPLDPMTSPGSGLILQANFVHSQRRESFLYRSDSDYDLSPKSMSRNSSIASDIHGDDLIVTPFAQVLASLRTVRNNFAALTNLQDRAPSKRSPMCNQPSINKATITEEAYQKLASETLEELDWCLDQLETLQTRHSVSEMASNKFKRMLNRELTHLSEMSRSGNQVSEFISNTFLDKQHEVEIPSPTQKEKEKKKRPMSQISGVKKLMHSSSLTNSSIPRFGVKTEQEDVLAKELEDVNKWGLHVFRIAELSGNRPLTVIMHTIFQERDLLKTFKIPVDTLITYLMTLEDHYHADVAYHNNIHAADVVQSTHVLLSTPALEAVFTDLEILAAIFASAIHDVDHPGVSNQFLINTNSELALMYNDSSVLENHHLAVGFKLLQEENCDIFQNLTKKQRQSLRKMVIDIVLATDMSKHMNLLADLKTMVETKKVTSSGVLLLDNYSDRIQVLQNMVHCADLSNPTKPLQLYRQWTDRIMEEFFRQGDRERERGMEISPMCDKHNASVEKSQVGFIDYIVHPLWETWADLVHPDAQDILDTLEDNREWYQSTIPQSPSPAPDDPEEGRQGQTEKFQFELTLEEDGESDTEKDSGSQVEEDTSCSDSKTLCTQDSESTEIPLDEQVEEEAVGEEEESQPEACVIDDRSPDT
T1 sequence (Q07343 whole entry): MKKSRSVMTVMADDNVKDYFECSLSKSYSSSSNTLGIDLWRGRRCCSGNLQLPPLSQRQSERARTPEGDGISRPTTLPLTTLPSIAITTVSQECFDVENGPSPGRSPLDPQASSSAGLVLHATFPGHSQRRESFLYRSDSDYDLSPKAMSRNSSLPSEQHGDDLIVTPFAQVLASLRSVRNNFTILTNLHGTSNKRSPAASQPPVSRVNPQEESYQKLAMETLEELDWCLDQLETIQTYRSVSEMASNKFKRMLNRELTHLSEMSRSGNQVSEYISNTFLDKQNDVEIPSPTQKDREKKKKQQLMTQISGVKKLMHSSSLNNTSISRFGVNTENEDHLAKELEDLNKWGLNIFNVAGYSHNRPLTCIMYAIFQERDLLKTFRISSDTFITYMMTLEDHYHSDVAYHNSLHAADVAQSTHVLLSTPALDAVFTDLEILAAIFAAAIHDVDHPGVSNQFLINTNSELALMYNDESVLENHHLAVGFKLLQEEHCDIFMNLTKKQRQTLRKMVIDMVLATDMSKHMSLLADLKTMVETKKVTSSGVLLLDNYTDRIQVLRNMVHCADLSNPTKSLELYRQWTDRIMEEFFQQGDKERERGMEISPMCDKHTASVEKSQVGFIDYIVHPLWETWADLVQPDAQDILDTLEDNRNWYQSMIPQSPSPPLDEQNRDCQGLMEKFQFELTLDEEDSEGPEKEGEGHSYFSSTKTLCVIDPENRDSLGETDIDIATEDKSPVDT
cGMP-inhibited 3',5'-cyclic phosphodiesterase 3A (Homo sapiens), sequence (Q14432 whole entry): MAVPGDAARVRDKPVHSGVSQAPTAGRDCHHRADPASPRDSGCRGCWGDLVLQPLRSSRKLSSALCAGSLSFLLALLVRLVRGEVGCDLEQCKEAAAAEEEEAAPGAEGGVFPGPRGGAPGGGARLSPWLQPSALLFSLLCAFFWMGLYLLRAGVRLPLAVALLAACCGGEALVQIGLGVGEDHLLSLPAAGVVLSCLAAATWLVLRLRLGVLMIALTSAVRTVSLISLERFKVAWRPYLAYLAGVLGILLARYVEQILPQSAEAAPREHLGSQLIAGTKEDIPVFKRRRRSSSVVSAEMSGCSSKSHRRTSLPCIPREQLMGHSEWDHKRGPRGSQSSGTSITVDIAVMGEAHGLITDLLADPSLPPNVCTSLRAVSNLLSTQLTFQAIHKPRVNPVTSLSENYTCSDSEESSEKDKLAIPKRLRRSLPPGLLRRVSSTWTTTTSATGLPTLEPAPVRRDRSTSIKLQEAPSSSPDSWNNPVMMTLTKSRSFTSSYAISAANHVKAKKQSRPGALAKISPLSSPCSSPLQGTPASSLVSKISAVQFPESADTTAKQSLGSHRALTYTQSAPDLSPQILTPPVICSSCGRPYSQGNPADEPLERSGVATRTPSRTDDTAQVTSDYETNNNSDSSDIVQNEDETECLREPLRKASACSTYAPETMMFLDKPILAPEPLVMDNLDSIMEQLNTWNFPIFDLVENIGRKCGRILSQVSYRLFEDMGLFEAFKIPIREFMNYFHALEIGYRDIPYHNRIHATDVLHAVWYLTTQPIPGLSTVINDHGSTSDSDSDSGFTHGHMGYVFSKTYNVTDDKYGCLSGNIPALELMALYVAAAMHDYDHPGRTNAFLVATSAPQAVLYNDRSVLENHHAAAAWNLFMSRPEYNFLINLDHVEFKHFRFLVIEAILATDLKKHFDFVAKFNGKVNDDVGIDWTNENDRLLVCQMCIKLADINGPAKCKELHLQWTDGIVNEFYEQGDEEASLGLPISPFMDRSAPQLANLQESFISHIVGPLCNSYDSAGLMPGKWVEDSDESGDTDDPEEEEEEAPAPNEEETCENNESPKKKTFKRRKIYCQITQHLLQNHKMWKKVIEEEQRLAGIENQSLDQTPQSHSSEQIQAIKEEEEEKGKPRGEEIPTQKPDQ
cGMP-inhibited 3',5'-cyclic phosphodiesterase 3B (Homo sapiens), sequence (Q13370 whole entry, looked up): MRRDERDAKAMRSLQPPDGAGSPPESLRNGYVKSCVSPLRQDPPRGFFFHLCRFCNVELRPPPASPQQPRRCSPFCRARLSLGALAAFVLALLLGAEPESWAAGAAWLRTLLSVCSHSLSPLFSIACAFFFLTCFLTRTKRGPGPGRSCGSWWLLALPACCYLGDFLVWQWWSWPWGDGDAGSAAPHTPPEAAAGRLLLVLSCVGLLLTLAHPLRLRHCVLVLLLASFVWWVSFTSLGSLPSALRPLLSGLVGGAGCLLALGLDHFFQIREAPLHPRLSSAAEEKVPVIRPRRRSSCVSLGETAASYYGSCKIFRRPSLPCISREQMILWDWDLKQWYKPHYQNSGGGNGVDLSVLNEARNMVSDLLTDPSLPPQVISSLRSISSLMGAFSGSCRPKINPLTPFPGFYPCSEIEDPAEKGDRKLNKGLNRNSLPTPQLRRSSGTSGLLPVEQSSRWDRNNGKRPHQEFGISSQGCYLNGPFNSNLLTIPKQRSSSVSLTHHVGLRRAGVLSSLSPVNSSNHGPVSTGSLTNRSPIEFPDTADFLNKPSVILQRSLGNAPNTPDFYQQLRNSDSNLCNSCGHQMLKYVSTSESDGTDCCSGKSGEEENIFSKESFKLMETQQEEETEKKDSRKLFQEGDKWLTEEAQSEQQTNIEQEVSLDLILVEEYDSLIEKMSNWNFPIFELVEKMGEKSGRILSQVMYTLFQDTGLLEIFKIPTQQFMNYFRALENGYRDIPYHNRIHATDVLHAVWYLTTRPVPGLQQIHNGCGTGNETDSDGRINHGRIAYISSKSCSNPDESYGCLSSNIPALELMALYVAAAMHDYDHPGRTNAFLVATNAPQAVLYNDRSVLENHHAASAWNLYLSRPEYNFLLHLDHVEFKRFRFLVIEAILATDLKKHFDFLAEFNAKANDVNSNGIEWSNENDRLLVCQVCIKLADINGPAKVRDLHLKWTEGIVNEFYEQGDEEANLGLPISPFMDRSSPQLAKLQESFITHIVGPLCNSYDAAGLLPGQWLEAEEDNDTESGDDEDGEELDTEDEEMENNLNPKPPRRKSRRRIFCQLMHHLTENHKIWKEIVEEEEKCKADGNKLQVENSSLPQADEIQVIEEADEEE
3',5'-cyclic-AMP phosphodiesterase 7B (Homo sapiens), sequence (Q9NP56 whole entry): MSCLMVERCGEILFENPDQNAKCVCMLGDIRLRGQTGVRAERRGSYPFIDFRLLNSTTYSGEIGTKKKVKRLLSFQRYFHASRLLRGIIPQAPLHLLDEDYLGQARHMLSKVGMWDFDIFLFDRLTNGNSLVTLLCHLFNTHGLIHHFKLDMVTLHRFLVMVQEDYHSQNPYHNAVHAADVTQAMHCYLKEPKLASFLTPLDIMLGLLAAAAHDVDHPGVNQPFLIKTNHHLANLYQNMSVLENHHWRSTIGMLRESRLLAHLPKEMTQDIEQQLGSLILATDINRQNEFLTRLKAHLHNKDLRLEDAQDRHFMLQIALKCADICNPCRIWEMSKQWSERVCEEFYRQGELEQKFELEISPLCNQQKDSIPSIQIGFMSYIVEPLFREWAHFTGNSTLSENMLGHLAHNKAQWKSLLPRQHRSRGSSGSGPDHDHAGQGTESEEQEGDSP

- IC50 [2]: 1.1 µM
SMILES: Cc1cc2c(s1)N(Cc1cc3cc(Br)ccc3n1S(C)(=O)=O)c1ccccc1N=C2N1CCN(C)CC1
- Selectivity ratio [1]: > 10

- inhibition [3]: 13%
- inhibition [4]: 55%
- inhibition [5]: 3%
- inhibition [6]: 48%
- inhibition [7]: 88%
SMILES: OCCN(CCO)c1nc(N2CCCCC2)c2nc(N(CCO)CCO)nc(N3CCCCC3)c2n1

- inhibition [8]: 17%
- inhibition [9]: 85%
- inhibition [10]: 39%
- inhibition [11]: 94%
- inhibition [12]: 61%
- inhibition [13]: 9%
SMILES: CN(C(=O)CCCOc1ccc2[nH]c(=O)ccc2c1)C1CCCCC1

- inhibition [14]: > 75%
- IC50 [15]: 5.58 µM
SMILES: CCOC(=O)/C=C/c1c(-c2nc3ccccc3nc2Cl)c2cc(OC)ccc2n1C(C)C

- IC50 [16]: 22 µM
- inhibition [14]: > 75%
- IC50 [15]: 4.67 µM
SMILES: C=CCn1cc(-c2nc3ccccc3nc2Cl)c2ccccc21
- Ratio IC50 (Homo sapiens [17]): 4.8

- IC50 [16]: 5.02 µM
- inhibition [14]: > 75%
- IC50 [15]: 0.44 µM
SMILES: COc1ccc2c(c1)c(-c1nc3ccccc3nc1Cl)cn2C(C)C
- Ratio IC50 (Homo sapiens [17]): 11.4

- inhibition [14]: > 75%
- IC50 [15]: 1.98 µM
SMILES: C=CCn1cc(-c2ncccc2C#N)c2cc(OC)ccc21

- Selectivity ratio (Homo sapiens [18]): > 250
- inhibition at 1 h, 100 µM (PDE4C): 20 to 30%
- IC50 [16]: 15.2 µM
- inhibition [14]: > 75%
- IC50 [15]: 0.21 µM
SMILES: CCOC(=O)Cn1cc(-c2nc3ccccc3nc2Cl)c2cc(OC)ccc21
- Ratio IC50 (Homo sapiens [17]): 72

- inhibition [20]: 57%
- inhibition [21]: 8%
- inhibition [23]: 91%
SMILES: CCOc1cc([C@@H](CS(C)(=O)=O)N2C(=O)c3cccc(NC(C)=O)c3C2=O)ccc1OC
- inhibition [19]: 13%
- inhibition [22]: 89%
- inhibition [24]: 58%
